Experimental data from US7078428B2, “Isoindolone derivatives, preparation process and intermediates of this process, their use as medicaments, and pharmaceutical compositions comprising them” (Sanofi-Aventis Deutschland GmbH, priority 2002, dated 2006).

Assays:
[1] = molecular target: T1, NHE1 (Homo sapiens, UniProt P19634); experiment: NHE inhibition FLIPR test (intracellular pH recovery, BCECF) in transfected LAP-1 cells; format: cell-based; conditions: transfected cell line (parental LAP-1) expressing the NHE-1 subtype, pHi recovery after acidification
T1 construct: expressed in transfected cells
Procedure: The NHE inhibitory activities (IC50 values) of the compounds according to the invention were determined by a FLIPR test.
The test is performed in the FLIPR (Fluorescent Imaging Plate Reader) equipped with clear-bottomed and black-walled 96-well microtitration plates.
The growth medium for the transfected cells (Iscove +10% foetal calf serum) also comprises G418 as selection antibiotic to ensure the presence of transfected sequences.
The actual test begins by eliminating the growth medium and adding 100 μl of loading buffer per well (5 μM of BCECF-AM [2′,7′-bis(2-carboxyethyl)-5-(6)-carboxyfluoresceine acetoxymethyl ester] in 20 mM of NH4Cl, 115 mM of choline chloride, 1 mM of CaCl2, 5 mM of KCl, 20 mM of HEPES and 5 mM of glucose; pH 7.4 (adjusted with KOH). The cells are then incubated for 20 minutes at 37° C. This incubation results in the loading of the fluorescent dye into the cells, the fluorescence intensity of which depends on the pHi, and on the NH4Cl, which results in a slight basification of the cells.
The precursor BCECF-AM, a non-fluorescent dye, is, as an ester, capable of crossing the membrane. The actual dye, which is incapable of crossing the membrane, is released inside the cell by esterases.
After this 20-minute incubation, the loading buffer, which comprises NH4Cl and free BCECF-AM, is removed by washing three times in the cell washing device (Tecan Columbus), each wash being performed with 400 μl of washing buffer (133.8 mM of choline chloride, 4.7 mM of KCl, 1.25 mM of MgCl2, 1.25 mM of CaCl2, 0.97 mM of K2HPO4, 0.23 mM of KH2PO4, 5 mM of HEPES and 5 mM of glucose; pH 7.4 (adjusted with KOH)). The residual volume remaining in the wells is 90 μl (possibly between 50 and 125 μl). This washing step removes the free BCECF-AM and results in an intracellular acidification (pHi of 6.3-6.4) due to the removal of the external ammonium ions.
As the equilibrium of the intracellular ammonium with the aqueous ammonia and the protons, by removal of the extracellular ammonium and by the subsequent immediate crossing of the aqueous ammonia across the cell membrane, is disrupted, the washing process results in intracellular protons remaining, which is the cause of the intracellular acidification. This acidification can result finally in the death of the cells if it lasts long enough. It is important here for the washing buffer to be free of sodium (<1 mM), otherwise the extracellular sodium ions would result in an immediate increase in the pHi on account of the activity of the cloned NHE isoforms. It is also important for all the buffers used (loading buffer, washing buffer and regeneration buffer) not to contain any HCO3-ions, otherwise the presence of bicarbonate would result in the activation of bicarbonate-dependent systems that disrupt the pHi regulation, which systems are contained in the LAP-1 parental cell line.
The microtiter plates containing acidified cells are then transferred (up to 20 minutes after the acidification) to the FLIPR. In the FLIPR, the intracellular fluorescent dye is activated with light of a wavelength of 488 nm, which is generated by an argon laser, and the measuring parameters (laser power, illumination time and diaphragm of the […] camera integrated into the FLIPR) are chosen such that the average value of the fluorescent signal per well is between 30,000 and 35,000 relative fluorescence units.
The actual measurement in the FLIPR starts with a photograph being taken by the CCD camera every two seconds under software control. After 10 seconds, the increase in the intracellular pH is initiated by adding 90 μl of regeneration buffer (133.8 mM of NaCl, 4.7 mM of KCl, 1.25 mM of MgCl2, 1.25 mM of CaCl2, 0.97 mM of K2HPO4, 0.23 mM of KH2PO4, 10 mM of HEPES and 5 mM of glucose; pH 7.4 (adjusted with NaOH)) using a 96-well pipette device incorporated into the FLIPR. Some wells, to which is added pure regeneration buffer, serve as positive controls (100% NHE activity). […]

T1 sequence (P19634 whole entry, species assumed): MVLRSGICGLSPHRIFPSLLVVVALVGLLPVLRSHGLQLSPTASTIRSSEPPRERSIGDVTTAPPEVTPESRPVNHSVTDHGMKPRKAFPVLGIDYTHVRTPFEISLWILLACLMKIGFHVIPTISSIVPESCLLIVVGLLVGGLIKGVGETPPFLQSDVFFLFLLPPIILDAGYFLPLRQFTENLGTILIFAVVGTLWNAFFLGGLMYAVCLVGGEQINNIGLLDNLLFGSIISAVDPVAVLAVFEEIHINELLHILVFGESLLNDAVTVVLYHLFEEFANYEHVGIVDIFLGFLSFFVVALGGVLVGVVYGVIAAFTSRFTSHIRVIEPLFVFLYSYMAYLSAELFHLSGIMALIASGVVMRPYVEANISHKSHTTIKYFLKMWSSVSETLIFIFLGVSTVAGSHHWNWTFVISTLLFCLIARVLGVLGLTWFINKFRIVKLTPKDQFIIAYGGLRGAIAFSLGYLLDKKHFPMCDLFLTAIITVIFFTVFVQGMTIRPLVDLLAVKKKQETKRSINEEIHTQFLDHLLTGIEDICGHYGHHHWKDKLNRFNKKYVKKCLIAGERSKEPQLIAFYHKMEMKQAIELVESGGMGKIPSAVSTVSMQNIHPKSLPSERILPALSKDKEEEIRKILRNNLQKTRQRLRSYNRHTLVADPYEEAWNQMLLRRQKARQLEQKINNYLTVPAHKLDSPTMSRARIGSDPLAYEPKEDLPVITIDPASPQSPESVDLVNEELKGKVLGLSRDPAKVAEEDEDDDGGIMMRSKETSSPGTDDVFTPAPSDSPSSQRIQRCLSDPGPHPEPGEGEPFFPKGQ

Molecule	melting point [°C]	IC50 [1] [nM]
CC(C)CN1C(=O)c2ccccc2C1CC(=O)N=C(N)N (single isomer, unassigned; (-)) [Example 3, (−)-N-[2-(2-Isobutyl-3-oxo-2,3-dihydro-1H-isoindol-1-yl)acetyl]guanidine]	264	50
CN1C(=O)c2ccccc2C1CC(=O)N=C(N)N (stereo not drawn) [Example 1, N-[2-(2-Methyl-3-oxo-2,3-dihydro-1H-isoindol-1-yl)acetyl]guanidine]	–	74
CC(C)CN1C(=O)c2ccccc2C1CC(=O)N=C(N)N (stereo not drawn) [Example 2, N-[2-(2-Isobutyl-3-oxo-2,3-dihydro-1H-isoindol-1-yl)acetyl]guanidine]	–	59
CCCN1C(=O)c2ccccc2C1CC(=O)N=C(N)N (stereo not drawn) [Example 5, N-[2-(3-Oxo-2-propyl-2,3-dihydro-1H-isoindol-1-yl)acetyl]guanidine]	229	92
CCN1C(=O)c2ccccc2C1CC(=O)N=C(N)N (stereo not drawn) [Example 6, N-[2-(2-Ethyl-3-oxo-2,3-dihydro-1H-isoindol-1-yl)acetyl]guanidine]	223	211
CC(C)N1C(=O)c2ccccc2C1CC(=O)N=C(N)N (stereo not drawn) [Example 7, N-[2-(2-Isopropyl-3-oxo-2,3-dihydro-1H-isoindol-1-yl)acetyl]guanidine]	–	116
NC(N)=NC(=O)CC1c2ccccc2C(=O)N1Cc1ccccc1 (stereo not drawn) [Example 9, N-[2-(2-Benzyl-3-oxo-2,3-dihydro-1H-isoindol-1-yl)acetyl]guanidine]	–	156
CC(C)CN1C(=O)c2cc(OC(C)C)ccc2C1CC(=O)N=C(N)N (stereo not drawn) [Example 16, N-[2-(2-Isobutyl-5-isopropoxy-3-oxo-2,3-dihydro-1H-isoindol-1-yl)-acetyl]-guanidine]	–	251
CC(C)CN1C(=O)c2cccc(F)c2C1CC(=O)N=C(N)N (stereo not drawn) [Example 17, N-[2-(7-Fluoro-2-isobutyl-3-oxo-2,3-dihydro-1H-isoindol-1-yl)acetyl]guanidine]	–	43
Cc1cccc2c1C(=O)N(CC(C)C)C2CC(=O)N=C(N)N (stereo not drawn) [Example 20, N-[2-(2-Isobutyl-4-methyl-3-oxo-2,3-dihydro-1H-isoindol-1-yl)-acetyl]-guanidine]	–	18
NC(N)=NC(=O)CC1c2cc(C(F)(F)F)ccc2C(=O)N1CC(F)(F)F (stereo not drawn) [Example 21, N-{2-[3-Oxo-2-(2,2,2-trifluoro-ethyl)-6-trifluoromethyl-2,3-dihydro-1H-isoindol-1-yl]-acetyl}-quanidine]	–	4.9
N=C(N)NC(=O)CC1c2ccccc2C(=O)N1CC(F)(F)F (stereo not drawn) [Example 22, N-[2-(3-Oxo-2-(2,2,2-trifluoroethyl)-2,3-dihydro-1H-isoindol-1-yl)acetyl]guanidine]	–	100
Cc1ccc2c(c1)C(CC(=O)NC(=N)N)N(CC(C)C)C2=O (stereo not drawn) [Example 35, N-[(2-Isobutyl-6-methyl-3-oxo-2,3-dihydro-1H-isoindol-1-yl)acetyl]guanidine]	–	38
[H]/N=C(\N)NC(=O)CC1c2cc(S(C)(=O)=O)ccc2C(=O)N1CC(F)(F)F [Example 36, (R)-N-{2-[6-Methanesulfonyl-3-oxo-2-(2,2,2-trifluoro-ethyl)-2,3-dihydro-1H-isoindol-1-yl]-acetyl}-quanidine and (S)-N-{2-[6-Methanesulfonyl-3-oxo-2-(2,2,2-trifluoro-ethyl)-2,3-dihydro-1H-isoindol-1-yl]-acetyl}-quanidine]	–	31
[H]/N=C(\N)NC(=O)CC1c2cc(S(C)(=O)=O)ccc2C(=O)N1CC1CC1 (stereo not drawn) [Example 37, N-[2-(2-Cyclopropylmethyl-6-methanesulfonyl-3-oxo-2,3-dihydro-1H-isoindol-1-yl)acetyl]-guanidinium acetate]	–	188
[H]/N=C(\N)NC(=O)CC1c2cc(Cl)c(Cl)cc2C(=O)N1CCC(F)(F)F (stereo not drawn) [Example 41a, N-{2-[5,6-Dichloro-3-oxo-2-(3,3,3-trifluoro-propyl)-2,3-dihydro-1H-isoindol-1-yl]-acetyl}-guanidine acetate]	–	3
NC(N)=NC(=O)CC1c2cc(Cl)c(Cl)cc2C(=O)N1CC(F)(F)F (stereo not drawn) [Example 44a, N-{2-[5,6-Dichloro-3-oxo-2-(2,2,2-trifluoro-ethyl)-2,3-dihydro-1H-isoindol-1-yl]-acetyl}-guanidine acetate]	–	2
NC(N)=NC(=O)CC1c2cc(F)c(F)cc2C(=O)N1CC(F)(F)F (stereo not drawn) [Example 45, N-{2-[5,6-Difluoro-3-oxo-2-(2,2,2-trifluoro-ethyl)-2,3-dihydro-1H-isoindol-1-yl]-acetyl}-guanidine]	–	212
N-[2-(2-Cyclopropylmethyl-3-oxo-5-trifluoromethyl-2,3-dihydro-1H-isoindol-1-yl)acetyl]-guanidine and N-[2-(2-cyclopropylmethyl-3-oxo-6-trifluoromethyl-2,3-dihydro-1H-isoindol-1-yl)acetyl]guanidine [Example 25]	–	10
N-[2-(3-Oxo-2-(4,4,4-trifluorobutyl)-5-trifluoromethyl-2,3-dihydro-1H-isoindol-1-yl)-acetyl]guanidine and N-[2-(3-Oxo-2-(4,4,4-trifluorobutyl)-6-trifluoromethyl-2,3-dihydro-1H-isoindol-1-yl)acetyl]guanidine [Example 29]	–	2340
N-[2-(3-Oxo-5-trifluoromethyl-2-(3,3,3-trifluoropropyl)-2,3-dihydro-1H-isoindol-1-yl)-acetyl]guanidine and N-[2-(3-oxo-6-trifluoromethyl-2-(3,3,3-trifluoropropyl)-2,3-dihydro-1H-isoindol-1-yl)acetyl]guanidine [Example 27]	–	22
N-[2-(5-Bromo-2-isobutyl-3-oxo-2,3-dihydro-1H-isoindol-1-yl)acetyl]guanidine and N-[(6-Bromo-2-isobutyl-3-oxo-2,3-dihydro-1H-isoindol-1-yl)acetyl]guanidine [Example 13]	–	22
N-[2-(5-Chloro-2-isobutyl-3-oxo-2,3-dihydro-1H-isoindol-1-yl)acetyl]guanidine and N-[(6-Chloro-2-isobutyl-3-oxo-2,3-dihydro-1H-isoindol-1-yl)acetyl]guanidine [Example 12]	–	7
N-[2-(5-Chloro-3-oxo-2-(2,2,2-trifluoroethyl)-2,3-dihydro-1H-isoindol-1-yl)acetyl]-guanidine and N-[2-(6-chloro-3-oxo-2-(2,2,2-trifluoroethyl )-2,3-dihydro-1H-isoindol-1yl)acetyl]quanidine [Example 23]	–	35
N-[2-(5-Chloro-3-oxo-2-(3,3,3-trifluoropropyl)-2,3-dihydro-1H-isoindol-1-yl)acetyl]-guanidine and N-[2-(6-chloro-3-oxo-2-(3,3,3-trifluoropropyl)-2,3-dihydro-1H-isoindol-1-yl)acetyl]quanidine [Example 26]	–	8.6
N-[2-(5-Chloro-3-oxo-2-(4,4,4-trifluorobutyl)-2,3-dihydro-1H-isoindol-1-yl)acetyl]-guanidine and N-[2-(6-chloro-3-oxo-2-(4,4,4-trifluorobutyl)-2,3-dihydro-1H-isoindol-1yl)acetyl]guanidine [Example 28]	–	88
N-[2-(6-Chloro-2-cyclopropylmethyl-3-oxo-2,3-dihydro-1H-isoindol-1-yl )-acetyl]-guanidine and N-[2-(5-Chloro-2-cyclopropylmethyl-3-oxo-2,3-dihydro-1H-isoindol-1 yl)-acetyl]-guanidine [Example 24]	–	7.7
